In brackets after ≈: the same amount, converted by molar mass. Entries after “also recorded” stand apart in the source; their conditions may differ.
Key:
[1] = Solid solubility test (2 h and 24 h); assay type: physicochemical; conditions: for XRPD measured at 2 h: state of sample / solid fraction
Method: samples were weighed for each amorphous salt solid (equivalent to 20 mg of free base), and 10 mL of the following solvents were respectively added: 0.1N HCl solution (pH 1.0), 50 mM phosphate buffer (pH 4.5), FeSSIF-V1 (pH 5.0), FaSSIF-V1 (pH 6.5) and SGF (pH 2.0), […] The suspension was then centrifuged at 37° C., the supernatant was measured for solubility by HPLC, and the solid fraction was measured for XRPD. The target solubility was at least 2 mg (based on free base)/mL.

[2] = Chemical and physical stability of the salts at the end of the preparation; assay type: physicochemical
Description: It is crucial for drug development whether the salts obtained as above have chemical and physical stability at the end of the preparation. The chemical and physical stability of the salts at the end of the preparation includes: […]

[3] = Solid storage stability test; assay type: physicochemical; conditions: for Original morphology / Original purity: original solid before storage; for chemical and physical stability after storage (summary): solid/25° C./60% RH/open/1 week and/or solid/60° C./closed container/1 week
Method: Each amorphous salt solid was weighed (two 2 mg samples were weighed for purity testing after solid storage stability study, and one 10 mg sample was weighed for XRPD testing after solid storage stability study) and placed in a glass vial. In a 25° C./60% RH solid storage stability test, the amorphous salt solid was placed in a 25° C./60% RH constant temperature and humidity chamber, and placed in the dark for 1 week (i.e. “solid/25° C./60% RH/open/1 week”), and in a 60° C. solid storage stability test, the amorphous salt solid was sealed in an oven at 60° C. and heated for 1 week in the dark (i.e. “solid/60° C./closed container/l week”). Then the sample was taken out for purity testing, crystal form detection and appearance observation, respectively.

[4] = test system: EGFR activating mutation (such as exon 19 deletion activating mutation, L858R activating mutation, T790M drug resistance mutation and exon 20 insertion …); conditions: disclosed in CN105461695B; cited from earlier work
[5] = FaSSIF-V1 (pH 6.5) (Test ES4, partly printed ES1)
[6] = FaSSIF-V1 (pH 6.5) (Test ES4, partly printed ES1), 37° C., based on free base
[7] = Test ES1: 0.1N HCl solution (pH 1.0)
[8] = Test ES1: 0.1N HCl solution (pH 1.0), 37° C., based on free base
[9] = Test ES2: 50 mM phosphate buffer (pH 4.5)
[10] = Test ES2: 50 mM phosphate buffer (pH 4.5), 37° C., based on free base
[11] = Test ES3: FeSSIF-V1 (pH 5.0), 37° C., based on free base
[12] = Test ES5: SGF (pH 2.0), 37° C., based on free base
[13] = listed as amorphous 1 eq. esylate salt
[14] = Test BS1: solid/25° C./60% RH/open/1 week
[15] = solid/60° C./closed container/1 week (Test BS1)
[16] = listed as amorphous 1 eq. maleate salt
[17] = listed as 1 eq. hydrobromide salt
[18] = listed as crystalline 1 eq. hydrobromide salt

| Structure (SMILES) | pH measured at 2 h [1, 5] | Solubility measured at 2 h [1, 6] | XRPD measured at 2 h [1, 5] | pH measured at 2 h [1, 7] | Solubility measured at 2 h [1, 8] | XRPD measured at 2 h [1, 7] | pH measured at 2 h [1, 9] | Solubility measured at 2 h [1, 10] | XRPD measured at 2 h [1, 9] | pH measured at 2 h ([1]; Test ES3: FeSSIF-V1 (pH 5.0)) | Solubility measured at 2 h [1, 11] | XRPD measured at 2 h ([1]; Test ES3: FeSSIF-V1 (pH 5.0)) | pH measured at 2 h ([1]; Test ES5: SGF (pH 2.0)) | Solubility measured at 2 h [1, 12] | XRPD measured at 2 h ([1]; Test ES5: SGF (pH 2.0)) | Purity [3, 14] | Original morphology [3] | Original purity [3] | Purity [3, 15] | other results |
| --- | --- | --- | --- | --- | --- | --- | --- | --- | --- | --- | --- | --- | --- | --- | --- | --- | --- | --- | --- | --- |
| C=CC(=O)Nc1cc(Nc2ncnc(-c3cn(C)c4ccccc34)n2)c(OC)cc1N(C)CCN(C)C [Example 8] | (6.4) | >2000 µg/mL | clear solution | (0.8) | >2000 µg/mL | clear solution | (4.4) | >2000 µg/mL | clear solution | (4.8) | >2000 µg/mL | clear solution | (1.9) | >2000 µg/mL | clear solution | 99.9% | amorphous | 99.8% | 99.8% | chemical and physical stability at the end of the preparation ([2]; listed as 1 eq. esylate salt): chemically and physically stable; chemical and physical stability at the end of the preparation [2, 13]: chemically and physically stable; chemical and physical stability after storage (summary) ([3]; listed as 1 eq. esylate salt): physically unstable; chemical and physical stability after storage (summary) [3, 13]: physically unstable; physical and chemical stability under storage (in words) ([3]; solid/25° C./60% RH/open/1 week, listed as amorphous 1 eq. esylate salt): significant hygroscopicity (caking and fusion to a glassy state); physical and chemical stability under storage (in words) ([3]; solid/60° C./closed container/1 week, listed as amorphous 1 eq. esylate salt): good physical and chemical stability |
| C=CC(=O)Nc1cc(Nc2ncnc(-c3cn(C)c4ccccc34)n2)c(OC)cc1N(C)CCN(C)C [Example 9] | (6.1) | >2000 µg/mL | clear solution | (0.8) | >2000 µg/mL | clear solution | (4.3) | >2000 µg/mL | clear solution | (4.8) | >2000 µg/mL | clear solution | (2.0) |  | clear solution | 99.7% | amorphous | 99.8% | 98.2% | solubility at 2 h ([1]; SGF, 37 °C, pH 2, simulated gastric fluid, thermodynamic from solid, Test ES5: SGF (pH 2.0), 37° C., based on free base, read-out: Solubility measured at 2 h): > 2000 µg/mL; chemical and physical stability at the end of the preparation ([2]; listed as 1 eq. maleate salt): chemically and physically stable; chemical and physical stability at the end of the preparation [2, 16]: chemically and physically stable; chemical and physical stability after storage (summary) ([3]; listed as 1 eq. maleate salt): chemically unstable; also recorded: physically unstable; chemical and physical stability after storage (summary) [3, 16]: chemically unstable; also recorded: physically unstable; physical and chemical stability under storage (in words) ([3]; solid/25° C./60% RH/open/1 week, listed as amorphous 1 eq. maleate salt): slight color change and showed a certain hygroscopicity (agglomeration); decrease in purity ([3]; solid/60° C./closed container/1 week): about 2%; physical and chemical stability under storage (in words) ([3]; solid/60° C./closed container/1 week, listed as amorphous 1 eq. maleate salt): transformed from amorphous to a low crystallinity |
| C=CC(=O)Nc1cc(Nc2ncnc(-c3cn(C)c4ccccc34)n2)c(OC)cc1N(C)CCN(C)C [Example 10] | (6.4) | 700 µg/mL (≈ 1.4 mM) |  | (0.8) | >2000 µg/mL | clear solution | (4.4) | >2000 µg/mL | clear solution | (4.8) | >2000 µg/mL | clear solution | (1.9) | >2000 µg/mL | clear solution | 99.9% | crystalline | 99.9% | 99.9% | chemical and physical stability at the end of the preparation [2, 17]: chemically and physically stable; chemical and physical stability at the end of the preparation [2, 18]: chemically and physically stable; chemical and physical stability after storage (summary) [3, 17]: chemically and physically stable; chemical and physical stability after storage (summary) [3, 18]: chemically and physically stable; physical and chemical stability under storage (in words) ([3]; solid/25° C./60% RH/open/1 week, listed as crystalline 1 eq. hydrobromide salt): good physical and chemical stability; physical and chemical stability under storage (in words) ([3]; solid/60° C./closed container/1 week, listed as crystalline 1 eq. hydrobromide salt): good physical and chemical stability |
| C=CC(=O)Nc1cc(Nc2ncnc(-c3cn(C)c4ccccc34)n2)c(OC)cc1N(C)CCN(C)C [compound of formula (I)] |  |  |  |  |  |  |  |  |  |  |  |  |  |  |  |  |  |  |  | inhibitory activity against EGFR activating mutation compared with wild-type EGFR (WT EGFR) [4]: significantly higher |

Reference: patent US20230234941A1, “Salts of Compound and Pharmaceutical Compositions Containing the Same” (Shenzhen Forward Pharmaceuticals Co., Limited., priority 2020, published 2023)
